Measured values as given in US20100184094A1, “USE OF MDCK CELLS IN THE EVALUATION OF CHOLESTEROL MODULATORS” (priority 2007, published 2010).
Where two headings read alike, the source gives them in different places.

Columns and labels:
human NPC1L1 [1] = molecular target: T1, human NPC1L1 (Homo sapiens, UniProt Q9UHC9); test: [3H]AS binding to hNPC1L1/MDCKII-Flp cells; conditions: FIG. 7D, read-out: Ki inhibition of [3H]AS binding
T1 construct: expressed in transfected cells
T1 sequence (Q9UHC9 22-1359): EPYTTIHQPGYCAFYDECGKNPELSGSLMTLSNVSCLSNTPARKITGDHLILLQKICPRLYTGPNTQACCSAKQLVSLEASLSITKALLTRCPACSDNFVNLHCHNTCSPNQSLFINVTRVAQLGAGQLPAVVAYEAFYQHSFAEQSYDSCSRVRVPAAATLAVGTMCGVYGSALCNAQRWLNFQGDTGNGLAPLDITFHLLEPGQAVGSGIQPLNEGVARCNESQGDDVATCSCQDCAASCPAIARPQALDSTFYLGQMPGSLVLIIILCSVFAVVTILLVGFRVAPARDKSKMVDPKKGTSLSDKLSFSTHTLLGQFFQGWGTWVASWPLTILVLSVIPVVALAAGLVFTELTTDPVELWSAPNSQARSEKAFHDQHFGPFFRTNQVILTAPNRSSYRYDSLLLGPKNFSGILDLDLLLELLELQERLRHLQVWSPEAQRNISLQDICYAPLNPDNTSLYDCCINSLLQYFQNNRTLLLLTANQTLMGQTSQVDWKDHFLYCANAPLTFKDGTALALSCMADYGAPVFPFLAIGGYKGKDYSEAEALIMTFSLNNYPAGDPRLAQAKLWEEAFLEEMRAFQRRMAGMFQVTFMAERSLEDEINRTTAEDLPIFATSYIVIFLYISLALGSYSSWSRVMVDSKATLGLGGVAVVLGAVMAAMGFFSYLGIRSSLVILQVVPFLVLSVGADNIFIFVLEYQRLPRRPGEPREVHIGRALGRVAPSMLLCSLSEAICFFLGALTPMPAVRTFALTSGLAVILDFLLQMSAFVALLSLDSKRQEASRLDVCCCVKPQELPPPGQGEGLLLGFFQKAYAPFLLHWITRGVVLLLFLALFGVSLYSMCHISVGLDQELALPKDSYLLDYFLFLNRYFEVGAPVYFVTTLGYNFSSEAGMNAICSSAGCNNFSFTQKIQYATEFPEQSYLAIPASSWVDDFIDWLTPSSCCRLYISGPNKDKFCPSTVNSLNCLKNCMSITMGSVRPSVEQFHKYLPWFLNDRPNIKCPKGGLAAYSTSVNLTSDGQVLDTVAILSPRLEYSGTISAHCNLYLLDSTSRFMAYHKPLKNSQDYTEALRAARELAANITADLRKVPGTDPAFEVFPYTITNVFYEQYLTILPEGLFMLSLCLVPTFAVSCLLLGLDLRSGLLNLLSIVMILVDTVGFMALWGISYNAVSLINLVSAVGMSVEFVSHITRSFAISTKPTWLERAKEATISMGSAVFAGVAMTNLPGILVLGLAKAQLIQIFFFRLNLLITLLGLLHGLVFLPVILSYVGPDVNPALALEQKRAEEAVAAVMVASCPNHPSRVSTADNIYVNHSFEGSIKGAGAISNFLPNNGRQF
Protocol: rNPC1L1/HEK293 and TsA201 cells were seeded at a density of 10,000 cells per well in 96-well poly-D-lysine coated plates and cells were allowed to attach for approximately 18 h at 37° C. TsA201 cells were subsequently transfected with dog NPC1L1/pcDNA5/FRT according to the manufacturer's instructions (Roche) and incubated for 3 days at 37° C. MDCKII-derived, LLC-PKI, HepG2, or CaCo-2 cells were seeded at a density of 25,000 cells per well in 96-well tissue culture treated plates, and cells were allowed to attach and differentiate for approximately 72 h at 37° C., except for CaCo-2 cells where differentiation took approximately 14 days at 37° C. […] Duplicate samples were averaged for each experimental point. […] Dissociation kinetics were determined by addition of 100 μM EZE-gluc, and incubating for different periods of time. Nonspecific binding was defined in the presence of 100 μM EZE-gluc. At the end of the incubation period, cells were washed twice with 200 μl of pre-warmed DMEM to separate bound from free ligand, 1% SDS was added to the wells followed by 5 ml of Scintillant, and radioactivity associated with cells was determined using a β-counter. […] Thereafter, plates were placed on ice and cells were washed twice with ice-cold PBS, followed by ice-cold acid wash with DMEM, pH 3.5, for 1, 5 or 15 minutes. […] For Transwell experiments, MDCKII cells were seeded at 200,000 cells/well in a 24-well plate and incubated for 3 days at 37° C. […] Thereafter, both apical and basolateral compartments were washed three times with PBS, and the Transwell filter was cut out and its associated radioactivity determined using afi-counter. Data from saturation, competition and ligand dissociation experiments were analyzed as described in the literature; see, Priest, et al., 2004 Biochemistry 43:9866-9876; Knaus et al., 1995 Biochemistry 34:13627-13634. The association rate, k1, was determined by employing the pseudo-first-order rate equation k1=kobs([LR]e/[L][LR]max)) where [LR]max is the concentration of the complex at equilibrium, [L] is the concentration of ligand, [LR]max is the total receptor concentration, kobs is the slope of the pseudo-first order plot, ln([LR]e/([LR]e−[LR]t)) versus time, and [LR]t is the receptor-ligand complex at one given time point t.
To validate MDCKII cells as an appropriate surrogate system for monitoring NPC1L1-dependent processes, we evaluated their ability to perform EZE-sensitive cholesterol flux using a similar protocol to that recently reported. This assay makes use of the ability of βmCD to deplete membrane-bound cholesterol. […]
(§1) To further characterize the [^3H] cholesterol influx process into MDCK cells, the potency of EZE-like compound PS for inhibiting [^3H] cholesterol uptake was determined.

human NPC1L1 [2] = molecular target: T1, human NPC1L1; test: [3H]cholesterol flux into hNPC1L1/MDCKII-Flp cells; assay type: cell-based; conditions: for IC50: hNPC1L1/MDCKII-Flp
Protocol: Flux assays were performed essentially as described by Yu et al., 2006 J Biol. Chem. 281:6616-6624. Briefly, cell growth medium was completely aspirated and replaced with 200 μl of 5% LPDS containing the appropriate concentration of compound and incubated at 37° C./3 h in a 5% CO2 incubator. Media was subsequently aspirated from cells and cells were incubated in 200 μl of 0-5.5% βmCD dissolved and filtered through a […] filter at 37° C./45 minutes in a 5% CO2 incubator. Media was dumped from cells that were then washed twice with 125 μl of 5% LPDS before media was aspirated and [3H]cholesterol complexed to BSA in 5% LPDS was added; see Yu et al., 2006 J. Biol. Chem. 281:6616-6624. After 45 minute incubation, cells were washed twice with DMEM, thoroughly aspirated and then 1% SDS was added prior to extraction for scintillation counting.
To validate MDCKII cells as an appropriate surrogate system for monitoring NPC1L1-dependent processes, we evaluated their ability to perform EZE-sensitive cholesterol flux using a similar protocol to that recently reported. This assay makes use of the ability of βmCD to deplete membrane-bound cholesterol. Subsequent exposure of cells to [^3H] cholesterol provides a time-dependent flux of this substrate into the cells. […] In an attempt to improve the assay window, a stable MDCKII-Flp cell line over-expressing human NPC1L1, hNPC1L1/MDCKII-Flp, was generated.
as §1

[3] = FIG. 7D, read-out: IC50 block of [3H]cholesterol flux

Row | Compound | Ki (human NPC1L1 [1]) [nM] | IC50 (human NPC1L1 [2]; [3]) [nM] | blockade of [3H]cholesterol influx (human NPC1L1 [2]; 10 μM PS, 5.5% βmCD treatment) | IC50 (human NPC1L1 [2]; FIG. 7C, read-out: IC50 inhibition of [3H]cholesterol uptake) [nM]
1 | O=C1[C@H](CC[C@H](O)c2ccc(F)cc2)[C@@H](c2ccc(O)cc2)N1c1ccc(F)cc1 [EZE, Ezetimibe] | 1300 | > 1000 | – | –
2 | O=C(O)[C@H]1O[C@@H](Oc2ccc([C@@H]3[C@@H](CC[C@H](O)c4ccc(F)cc4)C(=O)N3c3ccc(F)cc3)cc2)[C@H](O)[C@@H](O)[C@@H]1O [EZE-gluc, ezetimibe glucuronide] | 209 | 300 | – | –
3 | COC(=O)[C@H]1O[C@@H](Oc2ccc([C@@H]3[C@@H](CC[C@H](O)c4ccc(F)cc4)C(=O)N3c3ccc(C#CCNS(C)(=O)=O)cc3)cc2)[C@H](O)[C@@H](O)[C@@H]1O [PS, 4-[(2S,3R)-3-[(3S)-3-(4-fluorophenyl)-3-hydroxypropyl]-1-(4-{3-[(methylsulfonyl)amino]prop-1-yn-1-yl}phenyl)-4-oxoazetidin-2-yl]phenyl methyl-β-D-glucopyranosiduronate] | 5 | 7 | almost completely blocked | 10.3 ± 1.5
